From ChEMBL document CHEMBL5154806, “Synthesis and Profiling of Highly Selective Inhibitors of Methyltransferase DOT1L Based on Carbocyclic C-Nucleosides” (J Med Chem, 2022)
Values belong to the compound of their own block, whether it stands above or below them. The source made the active and inactive calls. No cut-off for these calls is given here.

Assays:
[1] = target: T1, Histone-lysine N-methyltransferase, H3 lysine-79 specific (Homo sapiens, UniProt Q8TEK3); test: Inhibition of human DOT1L by hotspot PMT activity assay
Target sequence in this assay (Q8TEK3 whole entry): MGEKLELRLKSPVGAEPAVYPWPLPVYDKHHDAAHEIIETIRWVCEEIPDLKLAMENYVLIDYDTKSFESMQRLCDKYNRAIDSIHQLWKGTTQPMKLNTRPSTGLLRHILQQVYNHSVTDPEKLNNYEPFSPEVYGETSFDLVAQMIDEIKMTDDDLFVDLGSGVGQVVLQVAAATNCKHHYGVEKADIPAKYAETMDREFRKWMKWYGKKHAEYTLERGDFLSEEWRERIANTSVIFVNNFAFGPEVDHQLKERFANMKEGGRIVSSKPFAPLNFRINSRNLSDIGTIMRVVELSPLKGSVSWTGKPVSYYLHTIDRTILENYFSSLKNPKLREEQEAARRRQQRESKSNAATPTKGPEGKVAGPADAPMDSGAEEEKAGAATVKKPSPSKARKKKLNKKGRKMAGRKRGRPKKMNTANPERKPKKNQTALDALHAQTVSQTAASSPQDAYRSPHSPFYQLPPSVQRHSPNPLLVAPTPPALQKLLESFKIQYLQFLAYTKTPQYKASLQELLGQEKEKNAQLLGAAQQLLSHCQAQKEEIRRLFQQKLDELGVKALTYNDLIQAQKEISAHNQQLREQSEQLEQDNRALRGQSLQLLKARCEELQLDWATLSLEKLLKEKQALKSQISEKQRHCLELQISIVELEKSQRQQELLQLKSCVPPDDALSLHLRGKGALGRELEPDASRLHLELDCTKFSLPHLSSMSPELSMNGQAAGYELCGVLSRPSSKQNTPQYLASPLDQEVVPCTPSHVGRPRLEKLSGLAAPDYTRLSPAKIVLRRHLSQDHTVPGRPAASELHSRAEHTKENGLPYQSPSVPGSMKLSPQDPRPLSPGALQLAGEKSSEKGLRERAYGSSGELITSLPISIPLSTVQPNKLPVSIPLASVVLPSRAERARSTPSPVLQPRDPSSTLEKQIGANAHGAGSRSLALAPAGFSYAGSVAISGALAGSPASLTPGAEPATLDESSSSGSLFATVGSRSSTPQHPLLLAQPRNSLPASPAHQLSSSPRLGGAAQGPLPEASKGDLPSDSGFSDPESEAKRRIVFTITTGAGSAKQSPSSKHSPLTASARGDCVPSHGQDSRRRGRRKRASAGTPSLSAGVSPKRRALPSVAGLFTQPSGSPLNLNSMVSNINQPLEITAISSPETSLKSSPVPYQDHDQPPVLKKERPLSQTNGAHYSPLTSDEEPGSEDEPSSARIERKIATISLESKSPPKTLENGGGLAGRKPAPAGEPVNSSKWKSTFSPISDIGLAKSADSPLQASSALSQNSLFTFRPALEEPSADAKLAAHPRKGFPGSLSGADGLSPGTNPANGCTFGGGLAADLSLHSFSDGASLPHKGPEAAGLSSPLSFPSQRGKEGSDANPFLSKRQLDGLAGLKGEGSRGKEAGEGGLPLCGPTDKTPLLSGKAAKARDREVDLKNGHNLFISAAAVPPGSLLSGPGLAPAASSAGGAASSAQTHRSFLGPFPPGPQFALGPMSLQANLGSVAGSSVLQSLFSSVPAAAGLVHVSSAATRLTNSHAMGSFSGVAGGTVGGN

[2] = Elimination rate constant in fasted BALB/c mouse at 20 mg/kg, po administered upto 600 mins by HPLC-MS/MS analysis; assay type: ADME, organism-based; conditions: in vivo
[3] = AUC (0 to infinity) in fasted BALB/c mouse at 20 mg/kg, po administered upto 600 mins by HPLC-MS/MS analysis; assay type: ADME, organism-based; set-up: dose 20 mg/kg, time < 600 min, route po; conditions: in vivo
[4] = Cmax in fasted BALB/c mouse at 20 mg/kg, iv administered upto 600 mins by HPLC-MS/MS analysis; assay type: ADME, organism-based; set-up: time < 600 min, dose 20 mg/kg, route iv; conditions: in vivo
[5] = AUC (0 to t) in fasted BALB/c mouse at 20 mg/kg, iv administered upto 600 mins by HPLC-MS/MS analysis; assay type: ADME, organism-based; set-up: dose 20 mg/kg, time < 600 min, route iv; conditions: in vivo
[6] = Volume of distribution in fasted BALB/c mouse at 20 mg/kg, iv administered upto 600 mins by HPLC-MS/MS analysis; assay type: ADME, organism-based; conditions: in vivo
[7] = AUC (0 to t) in fasted BALB/c mouse at 20 mg/kg, po administered upto 600 mins by HPLC-MS/MS analysis; assay type: ADME, organism-based; set-up: dose 20 mg/kg, time < 600 min, route po; conditions: in vivo
[8] = Tmax in fasted BALB/c mouse at 20 mg/kg, po administered upto 600 mins by HPLC-MS/MS analysis; assay type: ADME, organism-based; conditions: in vivo
[9] = Cmax in fasted BALB/c mouse at 20 mg/kg, po administered upto 600 mins by HPLC-MS/MS analysis; assay type: ADME, organism-based; set-up: time < 600 min, dose 20 mg/kg, route po; conditions: in vivo
[10] = Tmax in fasted BALB/c mouse at 20 mg/kg, iv administered upto 600 mins by HPLC-MS/MS analysis; assay type: ADME, organism-based; conditions: in vivo
[11] = Bioavailability in fasted BALB/c mouse at 20 mg/kg, iv administered upto 600 mins by HPLC-MS/MS analysis; assay type: ADME, organism-based; conditions: in vivo
[12] = AUC (0 to infinity) in fasted BALB/c mouse at 20 mg/kg, iv administered upto 600 mins by HPLC-MS/MS analysis; assay type: ADME, organism-based; set-up: dose 20 mg/kg, time < 600 min, route iv; conditions: in vivo
[13] = Elimination rate constant in fasted BALB/c mouse at 20 mg/kg, iv administered upto 600 mins by HPLC-MS/MS analysis; assay type: ADME, organism-based; conditions: in vivo
[14] = Half life in fasted BALB/c mouse at 20 mg/kg, iv administered upto 600 mins by HPLC-MS/MS analysis; assay type: ADME, organism-based; conditions: in vivo
[15] = Clearance in fasted BALB/c mouse at 20 mg/kg, iv administered upto 600 mins by HPLC-MS/MS analysis; assay type: ADME, organism-based; conditions: in vivo
[16] = Half life in fasted BALB/c mouse at 20 mg/kg, po administered upto 600 mins by HPLC-MS/MS analysis; assay type: ADME, organism-based; conditions: in vivo
[17] = target: T1, Histone-lysine N-methyltransferase, H3 lysine-79 specific; test: Binding affinity to human DOT1L assessed as binding free energy difference
Target sequence in this assay (Q8TEK3 whole entry, looked up): as the sequence (Q8TEK3 whole entry) above

[18] = Elimination rate constant in fasted BALB/c mouse at 5 mg/kg, iv administered upto 600 mins by HPLC-MS/MS analysis; assay type: ADME, organism-based; conditions: in vivo, iv, 5 mg/kg, 10 h
[19] = Clearance in fasted BALB/c mouse at 5 mg/kg, iv administered upto 600 mins by HPLC-MS/MS analysis; assay type: ADME, organism-based; conditions: in vivo
[20] = Cmax in fasted BALB/c mouse at 5 mg/kg, iv administered upto 600 mins by HPLC-MS/MS analysis; assay type: ADME, organism-based; set-up: time < 600 min, dose 5 mg/kg, route iv; conditions: in vivo
[21] = test system: MOLM-13; test: Cytotoxicity against human MOLM-13 cells assessed as metabolic activity at 1 to 40 uM incubated for 5 to 15 days by WST-1 assay; assay type: functional, cell-based; conditions: dose 1-40 µM, time 5-15 day
[22] = test system: MOLM-13; test: Cytotoxicity against human MOLM-13 cells assessed as reduction of cell viability at 1 to 40 uM incubated for 5 to 15 days by DiOC6/ propidium staining based flow cytometry analysis; assay type: functional; conditions: dose 1-40 µM, time 5-15 day
[23] = target: T1, Histone-lysine N-methyltransferase, H3 lysine-79 specific; test: Inhibition of DOT1L in human MOLM-13 cells assessed as decrease in H3K79 methylation at 1 to 10 uM using histone H3 as substrate incubated for 3 days by immunoblotting assay; assay type: cell-based; conditions: dose 1-10 µM, time 3.0 day, DDE = dose-dependent effect
Target sequence in this assay (Q8TEK3 whole entry, looked up): as the sequence (Q8TEK3 whole entry) above

[24] = Half life in fasted BALB/c mouse at 5 mg/kg, iv administered upto 600 mins by HPLC-MS/MS analysis; assay type: ADME, organism-based; conditions: in vivo, iv, 5 mg/kg, 10 h
[25] = target: T1, Histone-lysine N-methyltransferase, H3 lysine-79 specific; test: Inhibition of DOT1L in human OCI-AML5 cells assessed as decrease in H3K79 methylation at 1 to 10 uM using histone H3 as substrate incubated for 3 days by immunoblotting assay; assay type: cell-based; conditions: dose 1-10 µM, time 3.0 day, DDE = dose-dependent effect
Target sequence in this assay (Q8TEK3 whole entry, looked up): as the sequence (Q8TEK3 whole entry) above

[26] = Tmax in fasted BALB/c mouse at 5 mg/kg, iv administered upto 600 mins by HPLC-MS/MS analysis; assay type: ADME, organism-based; conditions: in vivo
[27] = target: T1, Histone-lysine N-methyltransferase, H3 lysine-79 specific; test: Inhibition of DOT1L in human SU-DHL-4 cells assessed as decrease in H3K79 methylation at 1 to 10 uM using histone H3 as substrate incubated for 3 days by immunoblotting assay; assay type: cell-based; conditions: dose 1-10 µM, time 3.0 day, DDE = dose-dependent effect
Target sequence in this assay (Q8TEK3 whole entry, looked up): as the sequence (Q8TEK3 whole entry) above

[28] = AUC (0 to t) in fasted BALB/c mouse at 5 mg/kg, iv administered upto 600 mins by HPLC-MS/MS analysis; assay type: ADME, organism-based; set-up: time < 600 min, dose 5 mg/kg, route iv; conditions: in vivo
[29] = target: T1, Histone-lysine N-methyltransferase, H3 lysine-79 specific; test: Inhibition of DOT1L in human MOLM-13 cells assessed as decrease in H3K79 methylation at 1 to 10 uM using histone H3 as substrate incubated for 5 days by immunoblotting assay; assay type: cell-based; conditions: dose 1-10 µM, time 5.0 day, DDE = dose-dependent effect
Target sequence in this assay (Q8TEK3 whole entry, looked up): as the sequence (Q8TEK3 whole entry) above

[30] = Acute toxicity in BALB/c mouse assessed as death at 10 to 20 mg/kg,iv; assay type: organism-based; conditions: in vivo, dose 10-20 mg/kg
[31] = test system: OCI-AML-3; test: Cytotoxicity against human OCI-AML-3 cells assessed as reduction of cell viability at 1 to 40 uM incubated for 5 to 15 days by WST-1 assay; assay type: functional, cell-based; conditions: dose 1-40 µM, time 5-15 day
[32] = Acute toxicity in BALB/c mouse assessed as mild tremor at 5 mg/kg,iv measured after 6 to 7 mins; assay type: organism-based; conditions: in vivo, time 6-7 min
[33] = target: T1, Histone-lysine N-methyltransferase, H3 lysine-79 specific; test: Inhibition of DOT1L in human OCI-AML5 cells assessed as decrease in H3K79 methylation at 1 to 10 uM using histone H3 as substrate incubated for 5 days by immunoblotting assay; assay type: cell-based; conditions: dose 1-10 µM, time 5.0 day, DDE = dose-dependent effect
Target sequence in this assay (Q8TEK3 whole entry, looked up): as the sequence (Q8TEK3 whole entry) above

[34] = Acute toxicity in BALB/c mouse assessed as respiratory failure at 5 mg/kg,iv measured after 6 to 7 mins; assay type: organism-based; conditions: in vivo, time 6-7 min
[35] = AUC (0 to infinity) in fasted BALB/c mouse at 5 mg/kg, iv administered upto 600 mins by HPLC-MS/MS analysis; assay type: ADME, organism-based; set-up: dose 5 mg/kg, time < 600 min, route iv; conditions: in vivo
[36] = Acute toxicity in BALB/c mouse at 10 to 20 mg/kg,iv; assay type: organism-based; conditions: in vivo, dose 10-20 mg/kg
[37] = test system: OCI-AML-3; test: Cytotoxicity against human OCI-AML-3 cells assessed as reduction of cell viability at 1 to 40 uM incubated for 5 to 15 days by DiOC6/ propidium staining based flow cytometry analysis; assay type: functional; conditions: dose 1-40 µM, time 5-15 day
[38] = target: T1, Histone-lysine N-methyltransferase, H3 lysine-79 specific; test: Inhibition of DOT1L in human SU-DHL-4 cells assessed as decrease in H3K79 methylation at 1 to 10 uM using histone H3 as substrate incubated for 5 days by immunoblotting assay; assay type: cell-based; conditions: dose 1-10 µM, time 5.0 day, DDE = dose-dependent effect
[39] = Volume of distribution in fasted BALB/c mouse at 5 mg/kg, iv administered upto 600 mins by HPLC-MS/MS analysis; assay type: ADME, organism-based; conditions: in vivo

k el at 10 h [2]: 0.000257 s⁻¹
AUC(0-inf) [3]: 1.3 µg·h/mL
Cmax [4]: 40.8 µg/mL
AUC(0-t) at 10 h [5]: 14.2 µg·h/mL
Vd [6]: 3.88 L/kg
AUC(0-t) at 10 h [7]: 1.2 µg·h/mL
Tmax [8]: 120 min
Cmax [9]: 0.561 µg/mL
Tmax [10]: 5 min
bioavailability [11]: 9%
AUC(0-inf) [12]: 14.2 µg·h/mL
k el at 10 h [13]: 0.0001 s⁻¹
half-life [14]: 115 min
clearance [15]: 1.4 L/h/kg
half-life [16]: 44.9 min
SMILES: CC(C)NC[C@H]1C[C@@H](c2ccc3c(N)ncnn23)[C@H](O)[C@@H]1O

k el at 10 h [2]: 0.000457 s⁻¹
AUC(0-inf) [3]: 0.845 µg·h/mL
Cmax [4]: 18.4 µg/mL
AUC(0-t) at 10 h [5]: 7.17 µg·h/mL
Vd [6]: 4.43 L/kg
AUC(0-t) at 10 h [7]: 0.83 µg·h/mL
Tmax [8]: 120 min
Cmax [9]: 0.645 µg/mL
Tmax [10]: 5 min
bioavailability [11]: 12%
AUC(0-inf) [12]: 7.25 µg·h/mL
k el at 10 h [13]: 0.000173 s⁻¹
half-life [14]: 66.7 min
clearance [15]: 2.76 L/h/kg
half-life [16]: 25.3 min
SMILES: CC(C)NC[C@@H]1C[C@H](c2ccc3c(N)ncnn23)[C@@H](O)[C@H]1O

IC50 [1]: 0.369 µM
SMILES: CN(CCCNC(=O)Nc1ccccc1)C[C@H]1C[C@@H](c2ccc3c(N)ncnn23)[C@H](O)[C@@H]1O

deltaG [17]: -3 kJ/mol
SMILES: CC(C)N(CCCNC(=O)Nc1ccccc1)C[C@H]1C[C@@H](c2ccc3c(N)ncnn23)[C@H](O)[C@@H]1O

Further lines, the compound ahead of its results:

SMILES: CC(C)N(C[C@@H]1C[C@H](c2ccc3c(N)ncnn23)[C@@H](O)[C@H]1O)[C@H]1C[C@@H](CCc2nc3cc(C(C)(C)C)ccc3[nH]2)C1
IC50 [1]: 0.08 µM

SMILES: CN(CCCNC(=O)Nc1ccc(C(C)(C)C)cc1)C[C@H]1C[C@@](O)(c2ccc3c(N)ncnn23)[C@H](O)[C@@H]1O
IC50 [1]: > 10 µM

SMILES: CN(CCCNC(=O)Nc1ccccc1)C[C@H]1C[C@@](O)(c2ccc3c(N)ncnn23)[C@H](O)[C@@H]1O
deltaG [17]: 14 kJ/mol

SMILES: CC(C)N(C[C@H]1O[C@@H](n2cnc3c(N)ncnc32)[C@H](O)[C@@H]1O)[C@H]1C[C@@H](CCc2nc3cc(C(C)(C)C)ccc3[nH]2)C1 [PINOMETOSTAT]
Kel [18]: 0.00161 min⁻¹
clearance [19]: 1.03 L/h/kg
Cmax [20]: 13.9 µg/mL
Activity [21]: Active
Activity [22]: Active
Activity [23]: Dde
t1/2 [24]: 43.2 min
Activity [25]: Dde
Tmax [26]: 5 min
Activity [27]: Dde
AUC(0-t) at 10 h [7]: 0.000662 µg·h/mL
AUC(0-t) at 10 h [28]: 4.83 µg·h/mL
Activity [29]: Dde
Tmax [8]: 5 min
Activity [30]: Toxic
Activity [31]: Active
Activity [32]: Toxic
Activity [33]: Dde
Activity [34]: Toxic
Cmax [9]: 0.0159 µg/mL
AUC(0-inf) [35]: 4.87 µg·h/mL
Activity [36]: Toxic
Activity [37]: Active
Activity [38]: Dde
Vd [39]: 1.07 L/kg

SMILES: CN(CCCNC(=O)Nc1ccc(C(C)(C)C)cc1)C[C@H]1C[C@@H](c2cnn3c(N)ccnc23)[C@H](O)[C@@H]1O
IC50 [1]: > 10 µM
